The values that follow come from ChEMBL document CHEMBL5346860, “Cancer multidrug-resistance reversal by ABCB1 inhibition: A recent update” (Eur J Med Chem, 2022).

A word on the pIC50: it is −log10 of the IC50, conventionally taken in molar units.

The subject of experiment [1] is P388/ADR. The experiment in a line: Potency index, ratio of verapamil IC50 to compound IC50 for reversal of ABCB1 mediated doxorubicin-resistance in mouse P388/ADR cells assessed as cell growth inhibition incubated for 48 hrs by MTT assay. It is filed as functional. In general terms: Tetrazolium dyes change colour on reduction, which living cells bring about.
Experiment [2] deals with P388/ADR. Kind of experiment: Reversal of ABCB1 mediated doxorubicin-resistance in mouse P388/ADR cells assessed as cell growth inhibition incubated for 48 hrs by MTT assay. It is filed as functional, cell-based.

Each structure is given as a SMILES string. pIC50: −log10 of the molar value.

For `COc1ccc(CCN(C)CCCOc2ccc(S(=O)(=O)c3c(C(C)C)cn4ccccc34)cc2)cc1OC` [FANTOFARONE], the “Ratio IC50” value in the experiment with P388/ADR [1] is 4.5. The negative logarithm of the IC50 (pIC50) with P388/ADR [2] is 4.52.
